Data taken from ChEMBL document CHEMBL1201862, “PubChem BioAssay data set” (2004).
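Exposure lasted 48 hours, with cells grown in 96-well plates and compounds tested at five concentrations. Abbreviation: GI50, concentration required for 50% inhibition of growth.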 Activity calls are given as the source filed them. Rule as the data show it: active = GI50 up to about 1.1 µM and inactive = higher.

How the values were obtained:
Assay in all cases: NCI anticancer screen, dose series, 48 h
K562 = test system: K562
SF-539 = test system: SF-539
SR = test system: SR
SNB-75 = test system: SNB-75
OVCAR-3 = test system: OVCAR-3
MDA-MB-435 = test system: MDA-MB-435
NCI/ADR-RES = test system: NCI/ADR-RES
Malme-3M = test system: Malme-3M
786-0 = test system: 786-0
HCT-116 = test system: HCT-116
NCI-H23 = test system: NCI-H23
SK-MEL-28 = test system: SK-MEL-28
SN12C = test system: SN12C
OVCAR-8 = test system: OVCAR-8
HCC 2998 = test system: HCC 2998
SW-620 = test system: SW-620
T47D = test system: T47D
MCF7 = test system: MCF7
LOX IMVI = test system: LOX IMVI

| SMILES | GI50 (K562) | GI50 (SF-539) | GI50 (SR) | GI50 (SNB-75) | GI50 (OVCAR-3) | GI50 (MDA-MB-435) | GI50 (NCI/ADR-RES) | GI50 (Malme-3M) | GI50 (786-0) | GI50 (HCT-116) | GI50 (NCI-H23) | GI50 (SK-MEL-28) | GI50 (SN12C) | GI50 (OVCAR-8) | GI50 (HCC 2998) | GI50 (SW-620) | GI50 (T47D) | GI50 (MCF7) | GI50 (LOX IMVI) |
| --- | --- | --- | --- | --- | --- | --- | --- | --- | --- | --- | --- | --- | --- | --- | --- | --- | --- | --- | --- |
| O=S(=O)(Nc1nc2ccccc2nc1Nc1cccc2ccccc12)c1ccccc1 | > 100 µM (inactive) | 44.9 µM (inactive) | > 100 µM (inactive) | 15.5 µM (inactive) | 4.67 µM (inactive) | > 100 µM (inactive) | 13.6 µM (inactive) | 4.48 µM (inactive) | 17 µM (inactive) | 17.7 µM (inactive) | 5.53 µM (inactive) | 25.9 µM (inactive) | > 100 µM (inactive) | 20.7 µM (inactive) | 2.16 µM (inactive) | 25.8 µM (inactive) | 5.26 µM (inactive) | > 100 µM (inactive) | > 100 µM (inactive) |
| N/N=C1\C(OC(=O)Nc2ccccc2)=Nc2ccccc21 | 40.3 µM (inactive) | 15.6 µM (inactive) | 25.6 µM (inactive) | 22.8 µM (inactive) | 11.2 µM (inactive) | 14.4 µM (inactive) | 30.3 µM (inactive) | 13.2 µM (inactive) | 16.4 µM (inactive) | 14.2 µM (inactive) | 15.1 µM (inactive) | 60 µM (inactive) | 19.2 µM (inactive) | 12.1 µM (inactive) | 15.3 µM (inactive) | 31.9 µM (inactive) | 10.9 µM (inactive) | 9.93 µM (inactive) | 14.5 µM (inactive) |
| O=[N+]([O-])C(=C1NCCN1)/C(Cl)=C(\Cl)Br | 5.33 µM (inactive) | > 63 µM (inactive) | 21.5 µM (inactive) | 27.2 µM (inactive) | 18 µM (inactive) | 29.4 µM (inactive) | > 63.1 µM (inactive) | 36.9 µM (inactive) | 17.6 µM (inactive) | 28.8 µM (inactive) | > 49.8 µM (inactive) | 32 µM (inactive) | 41.2 µM (inactive) | 40.3 µM (inactive) | 60 µM (inactive) | 13.5 µM (inactive) | 17.5 µM (inactive) | 30.3 µM (inactive) | 15.7 µM (inactive) |
| COC(O)C(=O)c1c2c(cc3c1CCC3)CCC2 (stereo not drawn) | 80.9 µM (inactive) | > 100 µM (inactive) | 66.2 µM (inactive) | > 100 µM (inactive) | > 100 µM (inactive) | > 100 µM (inactive) | > 100 µM (inactive) | > 100 µM (inactive) | > 100 µM (inactive) | > 100 µM (inactive) | > 100 µM (inactive) | > 100 µM (inactive) | > 100 µM (inactive) | > 100 µM (inactive) | > 100 µM (inactive) | > 100 µM (inactive) | > 100 µM (inactive) | > 100 µM (inactive) | > 100 µM (inactive) |
| N#CC(C#N)=Cc1c(O)ccc2ccccc12 | 4.05 µM (inactive) | 10.6 µM (inactive) | 4.17 µM (inactive) | 3.3 µM (inactive) | 13.7 µM (inactive) | 14.4 µM (inactive) | 17.3 µM (inactive) | 17 µM (inactive) | 13.3 µM (inactive) | 11.4 µM (inactive) | 12.2 µM (inactive) | 14.5 µM (inactive) | 13.6 µM (inactive) | 16.3 µM (inactive) | 16 µM (inactive) | 11.9 µM (inactive) | 13.3 µM (inactive) | 10.1 µM (inactive) | 12.1 µM (inactive) |
| COc1cccc2c1C(=O)c1c(O)c3c(c(O)c1C2=O)CC(O)(C(O)CO)CC3OC1CC2C(OC3COCC(C#N)N32)C(C)O1 (stereo not drawn) | < 0.01 µM (active) | < 0.01 µM (active) | < 0.01 µM (active) | < 0.01 µM (active) | < 0.01 µM (active) | < 0.01 µM (active) | < 0.01 µM (active) | < 0.01 µM (active) | < 0.01 µM (active) | < 0.01 µM (active) | < 0.01 µM (active) | < 0.01 µM (active) | < 0.01 µM (active) | < 0.01 µM (active) | < 0.01 µM (active) | < 0.01 µM (active) | < 0.01 µM (active) | < 0.01 µM (active) | < 0.01 µM (active) |
| CC(N/N=C(\S)N1CCCCCC1)c1cccnn1 (stereo not drawn) | 0.2 µM (active) | 0.194 µM (active) | 0.132 µM (active) | 1.75 µM (inactive) | 0.192 µM (active) | 0.61 µM (active) | 0.409 µM (active) | 0.192 µM (active) | 0.394 µM (active) | 0.325 µM (active) | 0.254 µM (active) | 0.482 µM (active) | 0.484 µM (active) | 0.239 µM (active) | 2.45 µM (inactive) | 0.147 µM (active) | 0.163 µM (active) | 0.258 µM (active) | 0.304 µM (active) |
